Assay results reported in patent US20100183710A1, “OMEPRAZOLE FORM B” (priority 2005, published 2010).

Key:
[1] = as described in U.S. Pat. No. 6,150,380; cited from earlier work
[2] = Long-term stability study of omeprazole Form B (polymorphic form by XRPD); format: physicochemical
From the text: Omeprazole Form B prepared using a method similar to the one described in Example 1 was subjected to long-term stability studies. Each sample was packed in a clear polythene bag, filled with nitrogen, tied with a tag and kept in a black polythene bag along with silica pouch filled with nitrogen and then sealed. Finally, the above triple laminated bag along with silica pouch was sealed and stored in a HDPE drum. The color, moisture content, purity and the polymorphic form of the product was checked at intervals during storage. The results for compliance of polymorphic form are tabulated below, where “ND” means not detected by XRPD. 950 mg of Form B and 50 mg of Form A of Omeprazole were weighed and combined to form a weight ratio of Form B to Form A of 95:5. The mixture was ground three times in a mortar to get a uniform powder. [table] FIG. 6 is a scan for pure omeprazole Form B. FIG. 5 is the XRPD scan for the standard, containing 5% by weight of omeprazole Form A, and the scan of FIG. 6 has been superimposed for comparison.

Color, moisture content and purity of the product during storage ([2]; long-term stability storage)	Conversion into crystalline Form A during storage ([2]; storage in a container for 6 months at 40° C. and 60% relative humidity)	Structure (SMILES)	Hygroscopicity relative to omeprazole Form B [1]	Thermodynamic stability relative to omeprazole Form B [1]	Conversion into Form A [1]
–	–	COc1ccc2[nH]c([S+]([O-])Cc3ncc(C)c(OC)c3C)nc2c1 (centres unmarked) [omeprazole Form A, 5-Methoxy-2-[[(4-methoxy-3,5-dimethyl-2-pyridinyl)methyl]sulfinyl]-1H-benzimidazole]	less hygroscopic	thermodynamically more stable	–
remained substantially the same	does not convert into crystalline Form A	COc1ccc2[nH]c([S+]([O-])Cc3ncc(C)c(OC)c3C)nc2c1 (centres unmarked) [Omeprazole Form B, 5-Methoxy-2-[[(4-methoxy-3,5-dimethyl-2-pyridinyl)methyl]sulfinyl]-1H-benzimidazole]	–	–	can completely or partially convert into Form A
